In ChEMBL document CHEMBL1201862, “PubChem BioAssay data set” (2004):
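How tested: cells in 96-well plates exposed to compound for 48 hours at five concentrations. Abbreviation: GI50, concentration required for 50% inhibition of growth.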 Activity calls are given as the source filed them. Rule as the data show it: active = GI50 up to about 1.1 µM and inactive = higher.

What was measured:
Assay in all cases: inhibition of tumour cell growth, NCI panel, 48 h
UACC-62 = system: UACC-62
ACHN = system: ACHN
RPMI-8226 = system: RPMI-8226
SK-MEL-2 = system: SK-MEL-2
HT-29 = system: HT-29
K562 = system: K562
OVCAR-4 = system: OVCAR-4
MOLT-4 = system: MOLT-4
EKVX = system: EKVX
HCC 2998 = system: HCC 2998
OVCAR-8 = system: OVCAR-8
HOP-62 = system: HOP-62
SF-539 = system: SF-539
DMS-273 = system: DMS-273
OVCAR-3 = system: OVCAR-3
786-0 = system: 786-0
PC-3 = system: PC-3
NCI/ADR-RES = system: NCI/ADR-RES
MCF7 = system: MCF7
RXF 393 = system: RXF 393

Measured: GI50

Cc1cc(Cl)ccc1NC(=O)C1C(=O)C(=O)N(c2ccc(Cl)cc2C)C1=O (configuration not stated)
inactive: UACC-62 63.2 µM | ACHN > 100 µM | RPMI-8226 29 µM | SK-MEL-2 89.9 µM | HT-29 96.2 µM | K562 40.6 µM | OVCAR-4 38.6 µM | MOLT-4 24.7 µM | EKVX 36.8 µM | HCC 2998 > 100 µM | OVCAR-8 56.6 µM | HOP-62 > 100 µM | SF-539 > 100 µM | DMS-273 > 100 µM | OVCAR-3 36.9 µM | 786-0 > 100 µM

CCCCCCCC(=O)OCC(COC(=O)C(C)(C)C)OC(=O)Cc1ccccc1 (configuration not stated)
inactive: UACC-62 > 100 µM | ACHN > 100 µM | RPMI-8226 > 100 µM | K562 > 100 µM | OVCAR-4 > 100 µM | MOLT-4 > 100 µM | HCC 2998 > 100 µM | OVCAR-8 > 100 µM | HOP-62 > 100 µM | DMS-273 > 100 µM | OVCAR-3 58.3 µM | 786-0 > 100 µM

O=C(/C=C\c1cccc2ccccc12)c1cccs1
inactive: UACC-62 9.95 µM | ACHN 11.5 µM | RPMI-8226 2.47 µM | HT-29 5.21 µM | K562 2.56 µM | OVCAR-4 17.7 µM | MOLT-4 5.06 µM | EKVX 12.8 µM | HCC 2998 15.5 µM | OVCAR-8 7.08 µM | HOP-62 17.7 µM | SF-539 16.9 µM | DMS-273 5.26 µM | OVCAR-3 11.4 µM | 786-0 10.7 µM

CCCCCCCC/C=C\CCCCCCCC(=O)NCCN(CCN)C(=O)CCCCCCC/C=C\CCCCCCCC
inactive: UACC-62 > 100 µM | ACHN > 100 µM | RPMI-8226 > 100 µM | HT-29 > 100 µM | K562 > 100 µM | OVCAR-4 > 100 µM | MOLT-4 > 100 µM | HCC 2998 > 100 µM | OVCAR-8 > 100 µM | HOP-62 > 100 µM | DMS-273 > 100 µM | OVCAR-3 78.7 µM | 786-0 > 100 µM

Cc1ccc(C(=O)O)c(CC2Cc3c(C)cccc3C2=O)c1 (configuration not stated)
inactive: UACC-62 > 100 µM | PC-3 > 100 µM | NCI/ADR-RES > 100 µM | ACHN > 100 µM | RPMI-8226 > 100 µM | SK-MEL-2 > 100 µM | HT-29 > 100 µM | K562 > 100 µM | OVCAR-4 > 100 µM | MOLT-4 > 100 µM | EKVX > 100 µM | HCC 2998 > 100 µM | OVCAR-8 > 100 µM | HOP-62 > 100 µM | SF-539 > 100 µM | MCF7 > 100 µM | RXF 393 > 100 µM | OVCAR-3 > 100 µM | 786-0 > 100 µM

C=CCOC1CC(n2cnc3c(N)ncnc32)OC1CO (configuration not stated)
inactive: UACC-62 > 100 µM | ACHN > 100 µM | RPMI-8226 > 100 µM | SK-MEL-2 > 100 µM | HT-29 > 100 µM | K562 > 100 µM | OVCAR-4 > 100 µM | MOLT-4 > 100 µM | HCC 2998 > 100 µM | OVCAR-8 > 100 µM | HOP-62 > 100 µM | SF-539 > 100 µM | DMS-273 > 100 µM | OVCAR-3 > 100 µM | 786-0 > 100 µM

COc1cccc2cc(C(=O)NC34CC5CC(CC(C5)C3)C4)c(=N)oc12
inactive: UACC-62 > 100 µM | PC-3 56.6 µM | NCI/ADR-RES > 86.1 µM | ACHN > 67.6 µM | RPMI-8226 25.6 µM | SK-MEL-2 > 95.1 µM | HT-29 47.1 µM | K562 50.9 µM | OVCAR-4 > 60.4 µM | MOLT-4 1.35 µM | EKVX > 61.8 µM | HCC 2998 > 54.2 µM | OVCAR-8 23.8 µM | HOP-62 53.1 µM | SF-539 > 34.3 µM | MCF7 13.2 µM | RXF 393 33.6 µM | OVCAR-3 24.6 µM | 786-0 59.8 µM

O=C(O)C(Cl)(c1ccccc1)c1ccccc1
inactive: UACC-62 > 100 µM | PC-3 > 100 µM | NCI/ADR-RES > 100 µM | ACHN > 100 µM | RPMI-8226 > 100 µM | SK-MEL-2 > 100 µM | HT-29 > 100 µM | K562 83 µM | OVCAR-4 > 100 µM | MOLT-4 > 100 µM | EKVX > 100 µM | HCC 2998 > 100 µM | OVCAR-8 > 100 µM | HOP-62 > 100 µM | SF-539 > 100 µM | MCF7 > 100 µM | RXF 393 > 100 µM | OVCAR-3 > 100 µM | 786-0 > 100 µM

Cc1cn(CCCCCCC2=NCCCN2)c(=O)[nH]c1=O
inactive: UACC-62 > 100 µM | PC-3 > 100 µM | NCI/ADR-RES > 100 µM | ACHN > 100 µM | RPMI-8226 > 100 µM | SK-MEL-2 > 100 µM | HT-29 > 100 µM | K562 > 100 µM | OVCAR-4 > 100 µM | MOLT-4 > 100 µM | EKVX > 100 µM | HCC 2998 > 100 µM | OVCAR-8 > 100 µM | HOP-62 > 100 µM | SF-539 > 100 µM | MCF7 > 100 µM | RXF 393 > 100 µM | OVCAR-3 > 100 µM | 786-0 > 100 µM
